Experimental data taken from patent US20150190369A1, “QUERCETIN-3-GLUCOSIDE AND USES THEREOF” (priority 2012, published 2015).

Legend:
PCSK9 gene = conditions: cited from earlier work
[1] = test system: hepatocyte nuclear factor 1α (HNF-1α); conditions: cited from earlier work
LDLR [2] = experiment: Semi-quantitative immunoblotting for LDLR protein in Huh7 cell lysates; type: cell-based, human; conditions: Huh7, at the concentrations of Q3G discussed
Protocol: At passage, Huh7 cells were routinely seeded at sub-confluence (˜10^6 cells/10-cm dish) in Dulbecco's modified Eagle's medium (DMEM) containing 10% fetal bovine serum (FBS) or LPDS (for experiments) and 50 μg/ml gentamycin. They were incubated overnight at 37° C., in a humidified 5% CO2-95% air atmosphere. Cells were treated or not with Q3G at defined concentrations and for defined lengths of time. Media were collected and centrifuged at 200 g for 5 min to sediment suspended cells; supernatants were collected and supplemented with 0.33 volumes of a 3×-concentrated PIC. Cell monolayers were rinsed with ice-cold phosphate-buffered saline (PBS); they were overlaid with […] the RIPA lysis buffer (50 mM Tris-HCl, pH 8, 150 mM NaCl, 1% NP-40, 0.5% Na-deoxycholate and 0.1% SDS) supplemented with 1× PIC. After 20 min in an ice bath, the lysates were centrifuged at 14,000 g and 4° C. for 20 min, and supernatants were collected. Conditioned media and lysates were stored at −20° C. until analysis.
Cell lysates were fractionated by SDS-PAGE and electrophoretically transferred onto a polyvinylidene fluoride membrane. The membrane was incubated with a goat antihuman LDLR, rabbit anti-PCSK9, or rabbit anti-SREBP-2 polyclonal antibody at 1:1000, 1:1500, and 1:200 dilutions, respectively, and then with a HRP-conjugated heterospecific secondary antibody against the primary Igs at a 1:2000 dilution. It was probed for HRP reaction using the Western Lightning Chemiluminescence Reagent Plus a chemiluminescence-based revelation kit. The signal was captured on X-ray film and immunoreactive bands analyzed by densitometry on a Syngene's ChemiGenius^2XE Bio Imaging System (Cambridge, Mass.) within the dynamic range of the instrument. The membrane was stripped and reprobed with the anti-β-actin monoclonal primary antibody at 1:20,000 dilution and HRP-conjugated rabbit anti-mouse IgG secondary antibody at a 1:5000 dilution. The densitometric values of β-actin bands were using for normalization of experimental samples.
Huh7 cells, hepatocyte derived cellular carcinoma cells, were incubated for 24 h in medium containing 10% lipoprotein-depleted serum (LPDS) and 0 to 10 μM Q3G. The level of LDLR mRNA was measured by quantitative real-time RT-PCR; that of the LDLR protein by semi-quantitative immunoblotting. Exposure to Q3G increased the intracellular content of LDLR mRNA in a concentration-dependent manner; the increase reached a 2× maximum at 2 μM (P<0.01, relative to no Q3G) (FIG. 3A). The content of the corresponding protein followed a similar pattern, but reached a 4× maximum at 4 μM (P<0.005) (FIG. 3B).
The kinetics of cellular accumulation of LDLR and PCSK9 at 2 μM Q3G was also examined: PCSK9 accumulation in the cells began after a 3-h lag; that of LDLR after 6-h lag (FIG. 6).
Statins induce expression of LDLR and PCSK9. […] We examined whether, at a 5 μM concentration of Q3G, simvastatin at 0.2 and 1 μM could further up regulate LDLR expression in Huh7 cells; and, inversely, whether the flavonol can reduce statin-stimulated PCSK9 secretion secreted by Huh7 cells.

PCSK9 = experiment: ELISA for secreted PCSK9 in conditioned media of Huh7 cells; type: cell-based, human; conditions: Huh7, at the concentrations used for Q3G
Protocol: Media were collected and PCSK9 levels therein were determined by ELISA.
At passage, Huh7 cells were routinely seeded at sub-confluence (˜10^6 cells/10-cm dish) in Dulbecco's modified Eagle's medium (DMEM) containing 10% fetal bovine serum (FBS) or LPDS (for experiments) and 50 μg/ml gentamycin. They were incubated overnight at 37° C., in a humidified 5% CO2-95% air atmosphere. Cells were treated or not with Q3G at defined concentrations and for defined lengths of time. Media were collected and centrifuged at 200 g for 5 min to sediment suspended cells; supernatants were collected and supplemented with 0.33 volumes of a 3×-concentrated PIC. Cell monolayers were rinsed with ice-cold phosphate-buffered saline (PBS); they were overlaid with 0.5 of the RIPA lysis buffer (50 mM Tris-HCl, pH 8, 150 mM NaCl, 1% NP-40, 0.5% Na-deoxycholate and 0.1% SDS) supplemented with 1× PIC. After 20 min in an ice bath, the lysates were centrifuged at 14,000 g and 4° C. for 20 min, and supernatants were collected. Conditioned media and lysates were stored at −20° C. until analysis.
The assays for PCSK9 and insulin were conducted as prescribed by kit manufacturers, using a Thermo Scientific plate reader. For example, PCSK9 levels in conditioned media were measured using the human PCSK9 ELISA kit from Circulex, as specified the manufacturer. The assay was a sandwich immunoassay using two antibodies (A and B) recognizing different PCSK9 epitopes. Briefly, aliquot of diluted media were overlaid on wells coated with anti-PCSK9 antibody A. After 1-h incubation, the wells were washed, overlaid with a solution of HRP-conjugated anti-PCSK9 antibody B, and incubated for 1 h. They were washed again, and overlaid with a solution of tetra-methylbenzidine as a chromogenic substrate for HRP. After 15 min, the reaction was stopped with ammonium sulfate and the absorbance of the reaction mixtures measured by spectrophotometry at 450 nm. All the steps were performed at room temperature. Standards consisted of recombinant human PCSK9.

Apo B = conditions: Caco-2 cells, 5-30 μM; cited from earlier work
LDLR [3] = conditions: HepG2 hepatocytes, 75 μM; cited from earlier work

## COc1ccc2cc3[n+](cc2c1OC)CCc1cc2c(cc1-3)OCO2 [Berberine]
PCSK9 gene
  PCSK9 gene transcription: reduces
[1]
  expression of HNF-1α: decreased expression

## O=c1c(O)c(-c2ccc(O)c(O)c2)oc2cc(O)cc(O)c12 [quercetin aglycone, quercetin]
LDLR [2]
  increase in LDLR level: not observed
PCSK9
  effect on PCSK9 secretion: not observed
PCSK9; listed as aglycone form of quercetin
  effect on PCSK9 secretion: failed to affect PCSK9 secretion
Apo B
  Apo B secretion: inhibit
LDLR [3]
  LDLR expression: up-regulation
